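In this assay, cells in 96-well plates receive the compound at five concentrations for 48 hours. Endpoints are linearly interpolated between the surrounding concentrations. Here, GI50 denotes the concentration required for 50% inhibition of growth.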 Active and inactive are the calls of the source. No stated cut-off is given here; in the data, active = GI50 up to about 1.1 µM and inactive = higher.
How the values were obtained:
Experiment in all cases: NCI-60 cell line screen, 48 h
BT-549 = system: BT-549
MDA-N = system: MDA-N
TK-10 = system: TK-10
NCI-H522 = system: NCI-H522
ACHN = system: ACHN
HOP-62 = system: HOP-62
MCF7 = system: MCF7
UO-31 = system: UO-31
SK-OV-3 = system: SK-OV-3
A549 = system: A549
OVCAR-5 = system: OVCAR-5
LOX IMVI = system: LOX IMVI
NCI-H23 = system: NCI-H23
SK-MEL-28 = system: SK-MEL-28
NCI/ADR-RES = system: NCI/ADR-RES
786-0 = system: 786-0
T47D = system: T47D
KM12 = system: KM12
Hs-578T = system: Hs-578T

Measured: GI50

CCOP(=O)(OCC)C1=C(c2ccccc2)OC(N)=C(C#N)C1c1ccc(Cl)cc1 (configuration not stated)
inactive: BT-549 > 100 µM | MDA-N > 100 µM | TK-10 > 100 µM | NCI-H522 67.9 µM | ACHN > 100 µM | HOP-62 > 100 µM | MCF7 > 100 µM | UO-31 > 100 µM | SK-OV-3 > 100 µM | A549 > 100 µM | OVCAR-5 > 100 µM | LOX IMVI > 100 µM | NCI-H23 > 100 µM | SK-MEL-28 > 100 µM | NCI/ADR-RES > 100 µM | 786-0 > 100 µM | T47D > 100 µM | KM12 > 100 µM

CC1CNC(NS(=O)(=O)c2cc(C(=O)Nc3ccc(Cl)cc3)c(Cl)cc2S)=NN1 (configuration not stated)
inactive: BT-549 53.7 µM | MDA-N 27.3 µM | TK-10 81.7 µM | NCI-H522 28.2 µM | ACHN 40 µM | HOP-62 41.5 µM | MCF7 45 µM | UO-31 49.7 µM | SK-OV-3 59.4 µM | A549 28.6 µM | OVCAR-5 38.5 µM | LOX IMVI 27.4 µM | NCI-H23 27.4 µM | SK-MEL-28 22.3 µM | NCI/ADR-RES 36.6 µM | 786-0 42.1 µM | KM12 28.1 µM

[N-]=[N+]=CC(=O)OCC1SCCCS1
inactive: BT-549 > 100 µM | MDA-N > 100 µM | TK-10 > 100 µM | NCI-H522 > 100 µM | ACHN 78.9 µM | HOP-62 89.7 µM | MCF7 > 100 µM | UO-31 > 100 µM | SK-OV-3 > 100 µM | OVCAR-5 > 100 µM | LOX IMVI > 100 µM | NCI-H23 > 100 µM | SK-MEL-28 > 100 µM | 786-0 > 100 µM | KM12 > 100 µM

O=C(O)c1cnc2[nH]ccn2c1=O
inactive: BT-549 > 100 µM | MDA-N > 100 µM | TK-10 > 100 µM | ACHN > 100 µM | HOP-62 > 100 µM | MCF7 > 100 µM | UO-31 > 100 µM | SK-OV-3 > 100 µM | A549 > 100 µM | OVCAR-5 > 100 µM | NCI-H23 > 100 µM | SK-MEL-28 > 100 µM | NCI/ADR-RES > 100 µM | 786-0 > 100 µM | T47D > 100 µM

O=C(/N=N/c1ccccc1Br)NNc1ccccc1Br
inactive: BT-549 82.8 µM | MDA-N 55.8 µM | TK-10 > 100 µM | NCI-H522 40.6 µM | ACHN 46.1 µM | HOP-62 > 100 µM | UO-31 38.9 µM | A549 64.9 µM | OVCAR-5 > 100 µM | LOX IMVI 91.4 µM | NCI-H23 48.9 µM | SK-MEL-28 53.7 µM | 786-0 72.1 µM | T47D 13.7 µM

O=C1CCCC2=C1C(c1ccc3c(c1)OCO3)Nc1ccc3ccccc3c12 (configuration not stated)
inactive: BT-549 > 100 µM | MDA-N 87.1 µM | TK-10 > 100 µM | NCI-H522 > 100 µM | ACHN 16 µM | HOP-62 > 100 µM | MCF7 > 100 µM | UO-31 > 100 µM | SK-OV-3 > 100 µM | A549 > 100 µM | OVCAR-5 > 100 µM | NCI-H23 > 100 µM | SK-MEL-28 > 100 µM | Hs-578T 41.3 µM | NCI/ADR-RES 55.1 µM | 786-0 > 100 µM | KM12 > 100 µM

Clc1ccc(-c2nc3ccc4ccccc4c3c3c2CCCC3)cc1
inactive: BT-549 > 100 µM | MDA-N > 100 µM | TK-10 > 100 µM | NCI-H522 > 100 µM | HOP-62 > 100 µM | MCF7 > 100 µM | UO-31 > 100 µM | SK-OV-3 > 100 µM | A549 63.4 µM | OVCAR-5 1.55 µM | NCI-H23 > 100 µM | SK-MEL-28 > 100 µM | Hs-578T > 100 µM | NCI/ADR-RES > 100 µM | 786-0 75.2 µM | KM12 > 100 µM

Source: ChEMBL document CHEMBL1201862, “PubChem BioAssay data set” (2004)
